# Measured values published in EP0298135A1, “Phenylalanine derivative and proteinase inhibitor” (Okamoto, Shosuke, priority 1987, dated 1989).
# Counter-ions that a name gives are not always drawn.
# Experiments:
# Assay type in all cases: biochemical
# human plasmin [1] = target: T1, human plasmin (Homo sapiens, UniProt P00747); test: Antiplasmin activity: inhibition of S-2251 decomposition; conditions: Table 2; substrate S-2251, pH 7.4, 37°C; read-out: Plasmin S-2251 (concentration I₅₀)
# Method: (ii) Determination of inhibition activity on S-225l decomposition
# An inhibitor sample is dissolved in a 0.05 M Tris-hydrochloric acid buffer solution (pH = 7.4) to bring the total volume to 400 µl. To this solution, 50 µl of a 3 mM S-225l solution is added and the mixture is incubated at a temperature of 37°C for 5 minutes in a constant temperature bath. Then 50 µl of a 0.2 casein unit/ml human plasmin is added and the mixture is incubated at a temperature of 37°C for 4 minutes. Thereafter, the reaction is stopped by adding 50 µl of 50% acetic acid.
# Thus, the concentration I₅₀ (µmol) of the inhibitor sample, at which the absorbance is one half (i.e., l/2) of that obtained in the absence of the inhibitor, is determined.
# human plasmin [2] = target: T1, human plasmin; test: Antiplasmin activity: inhibition of fibrin decomposition; conditions: Table 2; concentration at which fibrin dissolution time is extended twice, pH 7.4, 37°C; read-out: Plasmin Fibrin (concentration I₅₀)
# Method: (i) Determination of inhibition activity on fibrin decomposition
# An inhibitor sample is dissolved in a 0.l8 M borate-physiological salt buffer solution (pH = 7.4) to bring the total volume to 600 µl. To this buffer solution, 200 µl of a 0.2% bovine fibrinogen, l00 µl of a 0.3 casein unit/ml human plasmin solution, and l00 µl of a 50 unit/ml bovine thrombin solution, all dissolved in the above-mentioned buffer, are added at a temperature of 37°C in a constant temperature bath. The dissolution time of the fibrin mass formed above is then determined.
# bovine thrombin [3] = target: T2, bovine thrombin (Bos taurus, UniProt P00735); test: Antithrombin activity: inhibition of S-2238 decomposition
# Method: (ii) Determination of inhibition activity on S-2238 decomposition
# An inhibitor sample is dissolved in a 0.05 M Tris-hydrochloric acid buffer solution (pH = 8.3) to bring the a total volume to 400 µl. To this solution, 50 µl of a 0.2 mM S-2238 solution is added and the mixture is incubated at a temperature of 37°C for 5 minutes in a constant temperature bath. Then 50 µl of a 0.2 unit/ml bovine thrombin solution is added thereto and the absorbance, at 405 nm, of the p-nitroaniline formed per minute is determined at a temperature of 37°C by using the so-called initial velocity method. Thus, the concentration I₅₀ (µmol) of the inhibitor sample, at which the absorbance is one half (i.e., l/2) of that obtained in the absence of the inhibitor sample, is determined.
# bovine thrombin [4] = target: T2, bovine thrombin; test: Antithrombin activity: inhibition of fibrin formation from fibrinogen
# Method: (i) Determination of inhibition activity against fibrin formation
# An inhibitor sample is dissolved in a 0.l8 M borate-physiological salt buffer solution (pH = 7.4) to bring the total volume to 500 µl. To this solution, 400 µl of a 0.2% bovine fibrinogen solution and l00 µl of a 4 unit/ml bovine thrombin solution are added at a temperature of 37°C in a constant temperature bath. Thus, a coagulation time is determined. The inhibitor concentration I₅₀ (µmol), at which the coagulation time obtained in the absence of the inhibitor is extended twice, is determined.
# human urokinase = human urokinase (Homo sapiens, UniProt P00749); test: Antiurokinase activity: inhibition of S-2444 decomposition; conditions: Table 2; substrate S-2444, pH 8.8, 37°C; read-out: Urokinase S-2444 (concentration I₅₀)
# Method: Determination of inhibition activity for S-2444 decomposition
# An inhibitor sample is dissolved in a 0.05 M Tris-hydrochloric acid buffer solution (pH = 8.8) to bring the total volume to 400 µl. To this solution, 50 µl of a l mM S-2444 solution is added and the mixture is incubated at a temperature of 37°C for 5 minutes in a constant temperature bath. Then 50 µl of a 500 unit/ml human urokinase is added and the mixture is incubated at a temperature of 37°C for 5 minutes. Thereafter, 50 µl of 50% acetic acid is added to terminate the reaction. The absorbance of the p-nitroaniline formed in the reaction mixture is measured at 405 nm. Thus, the concentration I₅₀ (µmol) of the inhibitor sample, at which the absorbance is one half (i.e., l/2) of that obtained in the absence of the inhibitor sample, is determined.
# human plasma kallikrein = human plasma kallikrein (Homo sapiens, UniProt P03952); test: Anti-plasma kallikrein activity: inhibition of S-2302 decomposition; conditions: Table 2; substrate S-2302, pH 7.8, 37°C; read-out: Plasma Kallikrein S-2302 (concentration I₅₀)
# Chain of human plasma kallikrein (P03952 391-638 limits assumed): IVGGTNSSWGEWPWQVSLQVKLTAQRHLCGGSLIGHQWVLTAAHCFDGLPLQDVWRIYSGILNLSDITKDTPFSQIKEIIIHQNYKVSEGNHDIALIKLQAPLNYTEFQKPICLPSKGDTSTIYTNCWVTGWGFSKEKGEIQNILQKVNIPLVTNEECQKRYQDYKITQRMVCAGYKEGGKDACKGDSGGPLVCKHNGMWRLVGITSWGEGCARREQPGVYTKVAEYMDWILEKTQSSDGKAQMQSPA
# Chain of human plasma kallikrein (P03952 20-390 partner limits assumed): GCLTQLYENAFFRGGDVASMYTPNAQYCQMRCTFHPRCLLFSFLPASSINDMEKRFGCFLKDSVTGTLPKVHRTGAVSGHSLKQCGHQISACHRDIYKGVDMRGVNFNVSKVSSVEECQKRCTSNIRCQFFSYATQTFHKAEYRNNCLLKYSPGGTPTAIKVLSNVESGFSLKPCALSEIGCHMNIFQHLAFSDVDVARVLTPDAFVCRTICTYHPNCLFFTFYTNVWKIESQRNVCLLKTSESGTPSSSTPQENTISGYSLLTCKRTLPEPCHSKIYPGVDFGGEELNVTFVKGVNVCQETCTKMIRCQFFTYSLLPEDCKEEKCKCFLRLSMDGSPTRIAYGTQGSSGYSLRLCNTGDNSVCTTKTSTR
# Method: An inhibitor sample is dissolved in a 0.05 M Tris-hydrochloric acid buffer solution (pH = 7.8) to bring the total volume to 400 µl. […] Then, 50 µl of a 0.l2 unit/ml human plasma kallikrein is added and the mixture is incubated at a temperature of 37°C for 5 minutes. Thereafter, 50 µl of 50% acetic acid is added to terminate the reaction. […] Thus, the concentration I₅₀ (µmol) of the inhibitor sample, at which the absorbance is one half (i.e., l/2) of that obtained in the absence of the inhibitor sample, is determined.
# bovine trypsin = target: T3, bovine trypsin (Bos taurus, UniProt P00760); test: Antitrypsin activity: inhibition of S-2238 decomposition; conditions: Table 2; substrate S-2238, pH 8.1, 37°C; read-out: Trypsin S-2238 (concentration I₅₀)
# T3 sequence (P00760 24-246): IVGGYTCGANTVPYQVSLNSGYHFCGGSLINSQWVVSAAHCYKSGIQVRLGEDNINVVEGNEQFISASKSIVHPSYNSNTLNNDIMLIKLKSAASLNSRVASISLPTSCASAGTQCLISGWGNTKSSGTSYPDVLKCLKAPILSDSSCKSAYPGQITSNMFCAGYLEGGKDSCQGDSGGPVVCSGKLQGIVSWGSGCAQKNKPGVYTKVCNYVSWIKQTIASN
# Method: Determination of inhibition activity against S-2238 decomposition An inhibitor sample is dissolved in a 0.05 M Tris-imidazole buffer solution (pH = 8.l) and l25 µl of a l mM S-2238 solution is added to bring the total volume to l.20 ml. The mixture is incubated at a temperature of 37°C for 5 minutes in a constant temperature bath. To this mixture, 0.05 ml of bovine trypsin is added and the absorbance, at 405 nm, of the p-nitroaniline formed per minute is determined at a temperature of 37°C by using the so-called initial velocity method. Thus, the concentration I₅₀ (µmol) of the inhibitor sample, at which the absorbance is one half (i.e., l/2) of that obtained in the absence of the inhibitor sample, is determined.
# T1 sequence (P00747 581-810 limits assumed): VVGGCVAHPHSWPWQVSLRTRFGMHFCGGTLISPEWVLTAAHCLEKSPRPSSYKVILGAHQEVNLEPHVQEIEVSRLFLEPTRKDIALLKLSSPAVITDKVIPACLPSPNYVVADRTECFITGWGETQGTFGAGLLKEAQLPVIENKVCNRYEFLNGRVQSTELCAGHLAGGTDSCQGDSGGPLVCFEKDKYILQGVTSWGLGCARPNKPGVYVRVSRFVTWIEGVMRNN
# T1 sequence (P00747 97-580 partner limits assumed): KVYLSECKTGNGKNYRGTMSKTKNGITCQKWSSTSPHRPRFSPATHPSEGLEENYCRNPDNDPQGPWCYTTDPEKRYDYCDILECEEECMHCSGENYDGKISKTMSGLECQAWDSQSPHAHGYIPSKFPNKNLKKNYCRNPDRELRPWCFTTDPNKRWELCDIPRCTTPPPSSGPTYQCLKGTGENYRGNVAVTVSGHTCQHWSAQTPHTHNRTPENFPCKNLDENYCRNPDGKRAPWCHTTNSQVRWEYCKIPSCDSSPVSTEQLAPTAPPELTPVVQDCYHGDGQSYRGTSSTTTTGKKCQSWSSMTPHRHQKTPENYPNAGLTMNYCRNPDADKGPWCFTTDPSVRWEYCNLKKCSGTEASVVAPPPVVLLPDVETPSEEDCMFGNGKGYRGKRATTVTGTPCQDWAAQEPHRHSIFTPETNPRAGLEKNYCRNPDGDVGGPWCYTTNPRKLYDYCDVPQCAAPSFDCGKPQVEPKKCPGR
IC50 (human plasmin [1]) [µM],IC50 (human plasmin [2]) [µM],IC50 (bovine thrombin [3]) [µM],IC50 (bovine thrombin [4]) [µM],IC50 (human urokinase) [µM],IC50 (human plasma kallikrein) [µM],IC50 (bovine trypsin) [µM],"IC50 (bovine thrombin [4]; Table 2, concentration at which coagulation time is extended twice, bovine fibrinogen, pH 7.4, 37°C, read-out: Thrombin Fibrinogen (concentration I₅₀)) [µM]",Compound
2.2,0.98,–,–,4,0.3,0.75,–,"CC(=O)c1ccc(NC(=O)[C@H](Cc2ccc(OCc3ccccc3)cc2)NC(=O)c2ccc(C(=N)N)cc2)cc1 [compound 12, N-(4-amidinobenzoyl)-4-benzyloxy-L-phenylalanine 4-acetylanilide hydroiodic acid]"
> 1000,> 200,–,–,420,4.2,1.3,–,"Cc1ccc(NC(=O)[C@H](Cc2ccccc2)NC(=O)c2ccc(NC(=N)N)cc2)cc1 [compound 13, N-(4-guanidinobenzoyl)-L-phenylalanine 4-methylanilide hydrochloride]"
–,–,–,–,40,3.6,1.5,–,N=C(N)Nc1ccc(C(=O)N[C@@H](Cc2ccccc2)C(=O)Nc2ccc(C(=O)c3ccccc3)cc2)cc1 [compound 16]
–,–,> 1000,> 1000,630,12,35,–,COc1ccc(NC(=O)[C@H](Cc2ccccc2)NC(=O)c2ccc(NC(=N)N)cc2)cn1 [compound 18]
> 1000,> 1000,–,> 1000,–,1000,–,–,CN(Cc1ccncc1)C(=O)[C@H](Cc1ccccc1)NC(=O)c1ccc(NC(=N)N)cc1 [compound 19]
450,–,400,> 100,740,15,6,–,CC1CCC(NC(=O)[C@H](Cc2ccccc2)NC(=O)c2ccc(NC(=N)N)cc2)CC1C (some centres unmarked) [compound 21]
21,16,–,–,240,5.7,9.1,–,Cc1ccc(NC(=O)[C@H](Cc2ccc(OCc3ccccc3)cc2)NC(=O)c2ccc(NC(=N)N)cc2)cc1C [compound 24]
160,48,–,> 100,–,12,17,–,COc1ccc(NC(=O)[C@H](Cc2ccc(OCc3ccccc3)cc2)NC(=O)c2ccc(NC(=N)N)cc2)cn1 [compound 25]
140,–,–,–,–,170,110,–,CN(Cc1ccccc1)C(=O)[C@H](Cc1ccc(OCc2ccccc2)cc1)NC(=O)c1ccc(NC(=N)N)cc1 [compound 28]
120,82,–,–,–,56,17,–,N=C(N)NCCCC(=O)N[C@@H](Cc1ccc([N+](=O)[O-])cc1)C(=O)Nc1ccc(C(=O)c2ccccc2)cc1 [compound 29]
> 100,–,–,–,> 100,> 100,–,–,"N=C(N)NC[C@H]1CC[C@H](C(=O)N[C@@H](Cc2ccc([N+](=O)[O-])cc2)C(=O)Nc2ccc(C(=O)c3ccccc3)cc2)CC1 [compound 31, N-(trans-4-guanidinomethylcyclohexylcarbonyl)-4-nitro-L-phenylalanine 4-benzoylanilide methane sulfonate]"

# More lines, now with the values behind:
Compound,IC50 (human plasmin [1]) [µM],IC50 (human plasmin [2]) [µM],IC50 (bovine thrombin [3]) [µM],IC50 (bovine thrombin [4]) [µM],IC50 (human urokinase) [µM],IC50 (human plasma kallikrein) [µM],IC50 (bovine trypsin) [µM],"IC50 (bovine thrombin [4]; Table 2, concentration at which coagulation time is extended twice, bovine fibrinogen, pH 7.4, 37°C, read-out: Thrombin Fibrinogen (concentration I₅₀)) [µM]"
CCOC(=O)CC(O)CNC(=O)[C@H](Cc1ccccc1)NC(=O)CCCCN (some centres unmarked) [Compound No. 3],> 1000,> 1000,> 1000,> 1000,> 1000,–,–,–
"CN(Cc1ccncc1)C(=O)[C@H](Cc1ccccc1)NC(=O)CCCCCN [Compound No. 6, N-(6-aminocaproyl)-L-phenylalanine N-methyl-(4-pycoryl)amide dihydrochloride]",> 1000,> 1000,> 500,–,> 500,> 1000,–,–
"N=C(N)Nc1ccc(C(=O)N[C@@H](Cc2ccc([N+](=O)[O-])cc2)C(=O)Nc2ccc(C(=O)c3ccccc3)cc2)cc1 [Compound No. 23, N-(4-guanidinobenzoyl)-4-nitro-L-phenylalaninine 4-benzoylanilide methanesulfonate]",89,–,–,–,11,11,0.43,–
NCCCC(=O)N[C@@H](Cc1ccccc1)C(=O)Nc1ccc(C(=O)c2ccccc2)cc1 [compound 1],23,–,> 200,–,–,–,–,–
NCCCCCC(=O)N[C@@H](Cc1ccccc1)C(=O)Nc1ccc(C(=O)c2ccccc2)cc1 [compound 4],39,–,–,–,–,–,> 200,–
NCCCCCC(=O)N[C@@H](Cc1ccc(O)cc1)C(=O)Nc1ccc(C(=O)c2ccccc2)cc1 [compound 7],> 100,–,> 180,> 120,120,> 120,–,–
NCCc1ccc(C(=O)N[C@@H](Cc2ccccc2)C(=O)Nc2ccc(C(=O)c3ccccc3)cc2)cc1 [compound 9],30,–,–,–,100,31,16,–
"COc1ccc(NC(=O)[C@H](Cc2ccccc2)NC(=O)c2ccc(CCN)cc2)cn1 [compound 10, N-[4-(2-aminoethyl)benzoyl]-L-phenylalanine 3-(6-methoxypyridyl)amide dihydrochloride]",830,970,–,–,–,85,–,–
"CC(=O)c1ccc(NC(=O)[C@H](Cc2ccccc2)NC(=O)c2ccc(C(=N)N)cc2)cc1 [compound 11, N-(4-amidinobenzoyl)-L-phenylalanine 4-acetylanilide hydroiodic acid]",23,21,–,–,13,0.8,3.6,–
N-(4-guanidinobenzoyl)-L-phenylalanine 4-cis/trans-methylcyclohexylamide hydrochloride [Compound No. 20],140,73,–,–,310,45,15,> 100
